Test results reported in patent US20250064968A1, “ANTIBODY-CONJUGATED CHEMICAL […] OF D[…] H[…] LINKERS AND METHODS THEREOF” (Genentech, Inc., priority 2022, published 2025).

Assays:
BRM = molecular target: T1, BRM (Homo sapiens, UniProt P51531); test: Cell assays to determine DC50 and Dmax (nuclear BRM immunofluorescence after Ab-CIDE treatment); assay type: cell-based; set-up: DCmax (NCI-H1944): unit not given here; conditions: NCI-H1944 cells, 24 h drug treatment
T1 construct: endogenous in cells; host or cells: HCC515 and H1944 (NCI-H1944) cells
T1 sequence (P51531 whole entry): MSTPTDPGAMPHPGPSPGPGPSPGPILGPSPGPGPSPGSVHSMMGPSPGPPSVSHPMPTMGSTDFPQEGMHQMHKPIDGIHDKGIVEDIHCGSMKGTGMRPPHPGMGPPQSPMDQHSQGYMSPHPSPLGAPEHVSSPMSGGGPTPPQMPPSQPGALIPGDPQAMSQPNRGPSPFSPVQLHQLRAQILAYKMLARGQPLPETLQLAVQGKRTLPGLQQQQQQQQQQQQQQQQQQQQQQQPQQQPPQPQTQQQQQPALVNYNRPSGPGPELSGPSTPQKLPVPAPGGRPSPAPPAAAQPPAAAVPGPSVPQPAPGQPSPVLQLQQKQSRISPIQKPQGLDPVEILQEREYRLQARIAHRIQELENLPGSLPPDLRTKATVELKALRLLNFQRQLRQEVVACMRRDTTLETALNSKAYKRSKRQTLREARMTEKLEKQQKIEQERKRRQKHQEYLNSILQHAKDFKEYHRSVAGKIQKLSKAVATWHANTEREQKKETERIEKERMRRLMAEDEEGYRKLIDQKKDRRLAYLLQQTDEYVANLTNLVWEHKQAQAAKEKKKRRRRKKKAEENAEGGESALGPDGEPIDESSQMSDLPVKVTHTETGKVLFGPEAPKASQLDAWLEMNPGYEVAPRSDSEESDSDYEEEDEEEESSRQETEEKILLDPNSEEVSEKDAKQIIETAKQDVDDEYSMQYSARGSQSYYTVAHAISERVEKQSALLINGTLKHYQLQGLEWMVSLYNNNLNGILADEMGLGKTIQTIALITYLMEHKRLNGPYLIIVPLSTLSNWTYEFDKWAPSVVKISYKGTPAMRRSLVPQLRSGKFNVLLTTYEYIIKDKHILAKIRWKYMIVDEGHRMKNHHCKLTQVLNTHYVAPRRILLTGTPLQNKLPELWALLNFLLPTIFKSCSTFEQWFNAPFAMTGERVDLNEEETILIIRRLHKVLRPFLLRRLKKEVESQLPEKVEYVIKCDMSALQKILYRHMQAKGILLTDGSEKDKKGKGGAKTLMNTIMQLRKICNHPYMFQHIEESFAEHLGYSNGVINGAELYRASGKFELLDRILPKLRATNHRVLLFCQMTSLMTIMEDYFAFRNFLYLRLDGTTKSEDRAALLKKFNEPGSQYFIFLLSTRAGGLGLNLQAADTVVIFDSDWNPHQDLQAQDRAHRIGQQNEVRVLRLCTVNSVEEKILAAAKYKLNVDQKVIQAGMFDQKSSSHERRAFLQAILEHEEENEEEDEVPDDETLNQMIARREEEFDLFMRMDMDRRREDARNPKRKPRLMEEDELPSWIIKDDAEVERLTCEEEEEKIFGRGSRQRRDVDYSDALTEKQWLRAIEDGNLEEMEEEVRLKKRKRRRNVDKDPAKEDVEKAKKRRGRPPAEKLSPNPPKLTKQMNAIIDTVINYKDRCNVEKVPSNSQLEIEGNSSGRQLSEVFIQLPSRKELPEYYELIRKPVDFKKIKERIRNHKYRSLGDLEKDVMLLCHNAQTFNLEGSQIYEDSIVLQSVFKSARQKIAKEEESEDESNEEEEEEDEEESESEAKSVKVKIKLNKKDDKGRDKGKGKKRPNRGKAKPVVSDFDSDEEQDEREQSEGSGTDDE
Procedure: HCC515 and H1944 cells were plated in 384 well plates at 4000 and 2500 cells/well, respectively. The next day Ab-CIDEs were added. Following 24 h of drug treatment the cells were fixed with […] for 15 minutes. The plates were washed three time with PBS. The cells were incubated with IF blocking solution ([…], 10% BSA, 0.1% Triton, 0.010% Azide, X-100 in PBS). After 1.5 h a 2× solution of primary antibody diluted in IF blocking buffer: BRM (Cell signaling Cat #11966, 1:2000) was added. The plates were incubated over night at 4° C. The following morning cells were washed three time with PBS. Cells were then incubated with secondary antibodies (rabbit-Alexa 488 A21206 (1:2000)) for 1 h at room temperature in the dark. Hoechst H3570 at 1:5000 was added to the wells and the plates were incubated for an additional 30 minutes. Plates were wash 3×PBS and image on Opera Phenix™ High Content Screening System. Using nuclear staining as a mask, nuclear BRM mean signal intensity was quantified.

[1] = Stability of antibody-conjugated L1-CIDE at high DAR (DAR 14 synthesis); assay type: physicochemical; conditions: antibody conjugate from DAR 14 synthesis
Text: The hydrolysable linkers therefore are able to provide an advantage in obtaining high DAR, which results in high numbers of CTDEs that can be attached to a single antibody.

[2] = Ab target TfR2, conjugate DAR 5.41-6.14
[3] = Ab target TfR2, high-DAR conjugate (DAR 13.13-13.75)

Compound	DC50 (BRM; [2]) [nM]	DCmax (NCI-H1944) (BRM; [2])	DC50 (NCI-H1944) (BRM; [2]) [µg/mL]	DCmax (NCI-H1944) (BRM; [3])	DC50 (BRM; Ab target TfR2, high-DAR conjugate (DAR 13.75)) [nM]	Stability [1]
Cc1ncsc1-c1ccc([C@H](C)NC(=O)[C@@H]2C[C@@H](O)CN2C(=O)[C@@H](c2cc(OCCN3CCN(CCOc4cc(N5C6CCC5CN(c5cc(-c7ccccc7OCc7ccc(NC(=O)[C@H](CCCCN(C)C)NC(=O)C8(C(=O)NCCCCCNC(=O)[C@H](CO)N9C(=O)C=CC9=O)CCC8)cc7)nnc5N)C6)ccn4)[C@H](C)C3)no2)C(C)C)cc1.O=C(O)C(F)(F)F [Hy-B-CIDE-1]	128	89				
COC[C@@H](C(=O)NCCCCCNC(=O)C1(C(=O)N[C@@H](CCCCN(C)C)C(=O)Nc2ccc(COc3ccccc3-c3cc(N4CC5CCC(C4)N5c4ccnc(OCCN5CCN(CCOc6cc([C@H](C(=O)N7C[C@H](O)C[C@H]7C(=O)N[C@@H](C)c7ccc(-c8scnc8C)cc7)C(C)C)on6)C[C@H]5C)c4)c(N)nn3)cc2)CCC1)N1C(=O)C=CC1=O.O=C(O)C(F)(F)F [Hy-B-CIDE-2]	160	90				
Cc1ncsc1-c1ccc([C@H](C)NC(=O)[C@@H]2C[C@@H](O)CN2C(=O)[C@@H](c2cc(OCCN3CCN(CCOc4cc(N5C6CCC5CN(c5cc(-c7ccccc7OCc7ccc(NC(=O)[C@H](CCCCN(C)C)NC(=O)C8(C(=O)NCCN(C)CCN9C(=O)C=CC9=O)CCC8)cc7)nnc5N)C6)ccn4)[C@H](C)C3)no2)C(C)C)cc1.O=C(O)C(F)(F)F [Hy-B-CIDE-5]	412	76				
Cc1ncsc1-c1ccc([C@H](C)NC(=O)[C@@H]2C[C@@H](O)CN2C(=O)[C@@H](c2cc(OCCN3CCN(CCOc4cc(N5C6CCC5CN(c5cc(-c7ccccc7OCc7ccc(NC(=O)[C@H](CCCCN(C)C)NC(=O)C8(C(=O)NCCCCCNC(=O)CN9C(=O)C=CC9=O)CCC8)cc7)nnc5N)C6)ccn4)[C@H](C)C3)no2)C(C)C)cc1.O=C(O)C(F)(F)F [Hy-B-CIDE-6]		90	0.28			
CC(C)[C@@H](C(=O)N1C[C@H](O)C[C@H]1C(=O)N[C@@H](C)c1ccc(C#N)cc1)c1cc(OCCN2CCC(O[C@H]3C[C@H](Oc4cc(N5C6CCC5CN(c5cc(-c7ccccc7OCc7ccc(NC(=O)[C@H](CCCCN(C)C)NC(=O)C8(C(=O)NCCN(C)CCN9C(=O)C=CC9=O)CCC8)cc7)nnc5N)C6)ccn4)C3)CC2)no1 [Hy-B-CIDE-7]	205	62		75	89.6	Stable
Cc1ncsc1-c1ccc([C@H](C)NC(=O)[C@@H]2C[C@@H](O)CN2C(=O)[C@@H](c2cc(OCCN3CCN(CCOc4cc(N5C6CCC5CN(c5cc(-c7ccccc7OCc7ccc(NC(=O)[C@H](CCCCN(C)C)NC(=O)C8(C(=O)NCCCCCN(C)CCN9C(=O)C=CC9=O)CCC8)cc7)nnc5N)C6)ccn4)[C@H](C)C3)no2)C(C)C)cc1.O=C(O)C(F)(F)F [Hy-B-CIDE-8]	85.6	74				
CC(C)[C@@H](C(=O)N1C[C@H](O)C[C@H]1C(=O)N[C@@H](C)c1ccc(C#N)cc1)c1cc(OCCN2CCC(O[C@H]3C[C@H](Oc4cc(N5C6CCC5CN(c5cc(-c7ccccc7O)nnc5NC(=O)OCc5ccc(NC(=O)[C@H](CCCCN(C)C)NC(=O)C7(C(=O)NCCCCCN(C)CCN8C(=O)C=CC8=O)CCC7)cc5)C6)ccn4)C3)CC2)no1.O=C(O)C(F)(F)F [Hy-B-CIDE-9]	2200	82				
CC(C)[C@@H](C(=O)N1C[C@H](O)C[C@H]1C(=O)N[C@@H](C)c1ccc(C#N)cc1)c1cc(OCCN2CCC(O[C@H]3C[C@H](Oc4cc(N5C6CCC5CN(c5cc(-c7ccccc7O)nnc5NC(=O)OCc5ccc(NC(=O)[C@H](CCCCN(C)C)NC(=O)C7(C(=O)NCCCCCNC(=O)[C@H](CO)N8C(=O)C=CC8=O)CCC7)cc5)C6)ccn4)C3)CC2)no1 [Hy-B-CIDE-10]	4440	80				
CC(C)[C@@H](C(=O)N1C[C@H](O)C[C@H]1C(=O)N[C@@H](C)c1ccc(C#N)cc1)c1cc(OCCN2CCC(O[C@H]3C[C@H](Oc4cc(N5C6CCC5CN(c5cc(-c7ccccc7OCc7ccc(NC(=O)[C@H](CCCCN(C)C)NC(=O)C8(C(=O)NCCCCCN(C)CCN9C(=O)C=CC9=O)CCC8)cc7)nnc5N)C6)ccn4)C3)CC2)no1 [Hy-B-CIDE-11]	23200	53				
CC(C)[C@@H](C(=O)N1C[C@H](O)C[C@H]1C(=O)N[C@@H](C)c1ccc(C#N)cc1)c1cc(OCCN2CCC(O[C@H]3C[C@H](Oc4cc(N5C6CCC5CN(c5cc(-c7ccccc7OCc7ccc(NC(=O)[C@H](CCCCN(C)C)NC(=O)C8(C(=O)NCCCCCNC(=O)[C@H](CO)N9C(=O)C=CC9=O)CCC8)cc7)nnc5N)C6)ccn4)C3)CC2)no1 [Hy-B-CIDE-12]	12600	60				
CC(C)[C@@H](C(=O)N1C[C@H](OP(=O)(O)O)C[C@H]1C(=O)N[C@@H](C)c1ccc(C#N)cc1)c1cc(OCCN2CCC(O[C@H]3C[C@H](Oc4cc(N5C6CCC5CN(c5cc(-c7ccccc7OCc7ccc(NC(=O)[C@H](CCCCN(C)C)NC(=O)C8(C(=O)NCCN(C)CCN9C(=O)C=CC9=O)CCC8)cc7)nnc5N)C6)ccn4)C3)CC2)no1 [Hy-B-PCIDE-2]				42		Stable
